In this test the test system is CD2F1 mice, L1210 leukemia ip, survival T/C. Kind of test: NCI In Vivo Anticancer Drug Screen. Data for tumor model L1210 Leukemia (intraperitoneal) in CD2F1 (CDF1) mice. The conditions noted are these: higher = longer survival. The method, boiled down:
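Tumor-bearing mice (transplanted tumor) were split into treated and vehicle control groups, and the measured endpoint of each treated group was divided by that of its vehicle controls.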

[1] abbreviates: endpoint: mean survival time, dose: 50.0 mg/kg/injection, schedule: Q01DX009 (ip), vehicle: saline with Tween-80.
The mark [2] stands for this setting: endpoint: mean survival time, dose: 100.0 mg/kg/injection, schedule: Q01DX009 (ip), vehicle: saline with Tween-80.
The mark [3] stands for this setting: endpoint: mean survival time, dose: 200.0 mg/kg/injection, schedule: Q01DX009 (ip), vehicle: saline with Tween-80.
[4] abbreviates: endpoint: mean survival time, dose: 100.0 mg/kg/injection, schedule: Q01DX001 (ip), vehicle: saline with Tween-80.
[5] abbreviates: endpoint: mean survival time, dose: 200.0 mg/kg/injection, schedule: Q01DX001 (ip), vehicle: saline with Tween-80.
Setting [6] is: endpoint: mean survival time, dose: 400.0 mg/kg/injection, schedule: Q01DX001 (ip), vehicle: saline with Tween-80.
[7] abbreviates: endpoint: mean survival time, dose: 400.0 mg/kg/injection, schedule: Q01DX009 (ip), vehicle: saline with Tween-80.
The mark [8] stands for this setting: endpoint: mean survival time, dose: 100.0 mg/kg/injection, schedule: Q04DX003 (ip), vehicle: saline with Tween-80.
Where [9] appears, read: endpoint: mean survival time, dose: 200.0 mg/kg/injection, schedule: Q04DX003 (ip), vehicle: saline with Tween-80.
[10] abbreviates: endpoint: mean survival time, dose: 400.0 mg/kg/injection, schedule: Q04DX003 (ip), vehicle: saline with Tween-80.
Where [11] appears, read: endpoint: mean survival time, dose: 100.0 mg/kg/injection, schedule: Q04DX002 (ip), vehicle: saline with Tween-80.
Where [12] appears, read: endpoint: mean survival time, dose: 400.0 mg/kg/injection, schedule: Q04DX002 (ip), vehicle: saline with Tween-80.
Where [13] appears, read: endpoint: mean survival time, dose: 200.0 mg/kg/injection, schedule: Q01DX001 (ip), vehicle: saline.

SMILES strings stand for the structures. Values joined by “and” are separate entries in the source; they are usually repeats but may differ in a detail not shown here. Equal values may be shown once. Inconclusive results and toxic doses are left out.

This is an account of results in PubChem BioAssay AID256 (DTP/NCI, 2004).

`C[C@]12CC[C@H](OC3OC(CO)C(O)C(O)C3O)C[C@H]1CC[C@@H]1[C@@H]2CC[C@]2(C)[C@@H](C3=CCOC3=O)CC[C@]12O` (some centres undefined): the T/C was 110 % of control (endpoint: mean survival time, dose: 0.5 mg/kg/injection, schedule: Q01DX009 (ip), vehicle: saline); 110 % of control (endpoint: mean survival time, dose: 1.0 mg/kg/injection, schedule: Q01DX009 (ip), vehicle: saline); 107 % of control (endpoint: mean survival time, dose: 2.0 mg/kg/injection, schedule: Q01DX009 (ip), vehicle: saline); 112 % of control (endpoint: median survival time, dose: 0.5 mg/kg/injection, schedule: Q01DX009 (ip), vehicle: saline); 108 % of control (endpoint: median survival time, dose: 1.0 mg/kg/injection, schedule: Q01DX009 (ip), vehicle: saline); 113 % of control (endpoint: median survival time, dose: 2.0 mg/kg/injection, schedule: Q01DX009 (ip), vehicle: saline). For the same compound, the T/C (endpoint: median survival time, dose: 4.0 mg/kg/injection, schedule: Q01DX009 (ip), vehicle: saline) was 91 % of control.

For the compound `O=C(Oc1ccccc1/C=C/[n+]1ccccc1)c1ccccc1`, the T/C is 92 % of control under setting [1], 100 % of control under setting [2] and 96 % of control under setting [3].

In the case of `COC1OCC(N=[N+]=[N-])C(OS(C)(=O)=O)C1OS(C)(=O)=O` (centres undefined), the T/C is 95 % of control under setting [4]; 101 % of control under setting [2]; 98 % of control and 94 % of control under setting [5]; 94 % of control and 101 % of control under setting [6]; 97 % of control under setting [7].

Take `O=c1c2ccccc2sc2cccc(Sc3ccccc3)c12`: the T/C by setting is: under setting [8], 95 % of control; under setting [9], 96 % of control; under setting [10], 91 % of control.

Turning to `O=[N+]([O-])c1ccc(/C=C/C=C/c2ccc(Cl)c(S(=O)(=O)F)c2)c(Cl)c1`, the T/C under setting [2] was 97 % of control; the T/C under setting [8] was 102 % of control; the T/C under setting [3] was 103 % of control; the T/C under setting [9] is 102 % of control; the T/C under setting [7] was 106 % of control; the T/C under setting [10] was 102 % of control.

`CCOC(=O)COC(CC[P+](c1ccccc1)(c1ccccc1)c1ccccc1)(C(=O)c1ccccc1)c1ccccc1` (centres undefined): the T/C is 100 % of control (endpoint: mean survival time, dose: 5.0 mg/kg/injection, schedule: Q01DX001 (ip), vehicle: saline with Tween-80); 102 % of control (endpoint: mean survival time, dose: 6.25 mg/kg/injection, schedule: Q01DX001 (ip), vehicle: saline with Tween-80); 97 % of control (endpoint: mean survival time, dose: 12.5 mg/kg/injection, schedule: Q01DX001 (ip), vehicle: saline with Tween-80); 109 % of control (endpoint: mean survival time, dose: 20.0 mg/kg/injection, schedule: Q01DX001 (ip), vehicle: saline with Tween-80); 108 % of control (endpoint: mean survival time, dose: 25.0 mg/kg/injection, schedule: Q01DX001 (ip), vehicle: saline with Tween-80).

With `COc1ccc(CC2(C#N)c3ccccc3C=CN2C(=O)c2ccccc2)c([N+](=O)[O-])c1OC` (centres undefined), the T/C by setting is: under setting [4], 95 % of control; under setting [5], 97 % of control; under setting [6], 95 % of control.

Take `CN(C)C(=O)Sc1c(S(=O)(=O)F)ccc(Cl)c1Cl`: the T/C is, setting by setting: under setting [11], 96 % of control; (endpoint: mean survival time, dose: 200.0 mg/kg/injection, schedule: Q04DX002 (ip), vehicle: saline with Tween-80) 96 % of control; under setting [12], 100 % of control.

On to `Oc1ccc(O)c(CCCCCc2cc(O)ccc2O)c1`, for which the T/C (endpoint: mean survival time, dose: 100.0 mg/kg/injection, schedule: Q01DX009 (ip), vehicle: other) is 102 % of control and the T/C (endpoint: mean survival time, dose: 200.0 mg/kg/injection, schedule: Q01DX009 (ip), vehicle: other) is 98 % of control.

Turning to `Fc1ccc(N2CCNCC2)cc1`, the T/C was 101 % of control (endpoint: mean survival time, dose: 12.5 mg/kg/injection, schedule: Q04DX003 (ip), vehicle: saline); 103 % of control (endpoint: mean survival time, dose: 25.0 mg/kg/injection, schedule: Q04DX003 (ip), vehicle: saline); 92 % of control (endpoint: mean survival time, dose: 50.0 mg/kg/injection, schedule: Q04DX003 (ip), vehicle: saline).

`CCOS(=O)(=O)c1ccc(Cl)c([N+](=O)[O-])c1`: the T/C is, setting by setting: (endpoint: mean survival time, dose: 12.5 mg/kg/injection, schedule: Q01DX009 (ip), vehicle: saline with Tween-80) 100 % of control; (endpoint: mean survival time, dose: 25.0 mg/kg/injection, schedule: Q01DX009 (ip), vehicle: saline with Tween-80) 105 % of control; under setting [1], 94 % of control and 100 % of control; under setting [8], 103 % of control.

Take `CCCCOC(=O)c1ccc(NC(=O)Nc2ccccc2Cl)cc1`: the T/C is, setting by setting: under setting [1], 89 % of control; under setting [2], 86 % of control; under setting [8], 91 % of control; under setting [3], 96 % of control; under setting [9], 100 % of control.

As for `O=C1C=CC(=O)O1` (tested in a mixture with another compound), the T/C (endpoint: mean survival time, dose: 1.56 mg/kg/injection, schedule: Q01DX001 (ip), vehicle: other) was 109 % of control; the T/C (endpoint: mean survival time, dose: 1.56 mg/kg/injection, schedule: Q04DX003 (ip), vehicle: other) was 95 % of control; the T/C (endpoint: mean survival time, dose: 3.12 mg/kg/injection, schedule: Q01DX001 (ip), vehicle: other) was 105 % of control; the T/C (endpoint: mean survival time, dose: 3.12 mg/kg/injection, schedule: Q04DX003 (ip), vehicle: other) was 97 % of control; the T/C (endpoint: mean survival time, dose: 6.25 mg/kg/injection, schedule: Q04DX003 (ip), vehicle: other) is 97 % of control; the T/C (endpoint: mean survival time, dose: 50.0 mg/kg/injection, schedule: Q01DX001 (ip), vehicle: saline) is 115 % of control. For the same compound, the T/C was 117 % of control under setting [13]; 117 % of control (endpoint: mean survival time, dose: 400.0 mg/kg/injection, schedule: Q01DX001 (ip), vehicle: saline); 121 % of control (endpoint: mean survival time, dose: 1000.0 mg/kg/injection, schedule: Q01DX001 (ip), vehicle: saline).

As for `O=P(O)(O)C1c2ccccc2-c2ccccc21`, the T/C was 100 % of control under setting [2]; 97 % of control under setting [8]; 94 % of control under setting [3]; 96 % of control under setting [9]; 100 % of control under setting [10].

Regarding `Cc1ccc(CSCc2ccc(C)cc2)cc1`, the T/C (endpoint: mean survival time, dose: 100.0 mg/kg/injection, schedule: Q04DX003 (ip), vehicle: other) was 100 % of control; the T/C (endpoint: mean survival time, dose: 200.0 mg/kg/injection, schedule: Q04DX003 (ip), vehicle: other) is 107 % of control; the T/C (endpoint: mean survival time, dose: 400.0 mg/kg/injection, schedule: Q04DX003 (ip), vehicle: other) was 97 % of control.

Take `CC(C)(C)N1CC1`: the T/C under setting [11] is 102 % of control and the T/C under setting [12] was 94 % of control.

Turning to `CCOC(=O)c1c[nH]c2cc(OC)ccc2c1=O`, the T/C is 91 % of control under setting [8], 102 % of control under setting [9] and 100 % of control under setting [10].

With `CCCCCCCCN(C=O)CCCCCCCC`, the T/C (endpoint: mean survival time, dose: 25.0 mg/kg/injection, schedule: Q04DX002 (ip), vehicle: saline with Tween-80) is 93 % of control; the T/C (endpoint: mean survival time, dose: 50.0 mg/kg/injection, schedule: Q04DX002 (ip), vehicle: saline with Tween-80) is 96 % of control; the T/C under setting [11] was 104 % of control.

In the case of `CCOC(=O)c1cnc(SC)nc1NCc1ccc(Cl)cc1`, the T/C under setting [4] was 98 % of control; the T/C under setting [2] is 100 % of control; the T/C under setting [5] was 102 % of control; the T/C under setting [3] is 103 % of control; the T/C under setting [6] is 94 % of control; the T/C under setting [7] is 97 % of control.

As to `CSc1n[nH]c(N=[N+]=[N-])c1C(N)=O`, the T/C was 96 % of control under setting [8], 93 % of control under setting [9] and 101 % of control under setting [10].

`Clc1ccc2c(Cl)c3c(nc2c1)CCCC3`: the T/C is, setting by setting: (endpoint: mean survival time, dose: 100.0 mg/kg/injection, schedule: Q01DX001 (ip), vehicle: saline) 100 % of control; under setting [13], 100 % of control.

As to `C/C=C/c1ccc(OC(C)=O)c(OC)c1`, the T/C was 100 % of control under setting [2]; 94 % of control under setting [8]; 94 % of control under setting [3]; 100 % of control under setting [9]; 105 % of control under setting [7]; 94 % of control under setting [10].

With `O=[N+]([O-])O.[Ho]`, under “endpoint: mean survival time, dose: 100.0 mg/kg/injection, schedule: Q01DX009 (ip), vehicle: saline”, the T/C is 94 % of control.

`C[n+]1ccc(Nc2ccc(NC(=O)c3ccc(Nc4cc[n+](C)c5ccc(N)cc45)cc3N)cc2)cc1`: the T/C is, setting by setting: (endpoint: mean survival time, dose: 2.0 mg/kg/injection, schedule: Q01DX009 (ip), vehicle: water) 205 % of control; (endpoint: mean survival time, dose: 4.0 mg/kg/injection, schedule: Q01DX009 (ip), vehicle: water) 316 % of control.
